Measured values as given in the supplement of paper PMC4862054.

system: HDQ-P1; experiment: normalised response (% of control), CellTiter-Glo; higher = more viable cells (100 = DMSO, 0 = benzethonium chloride kill control); settings: incubation time: 72 h
In short: (§1)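 Compound was dispensed into 384-well plates at 5 concentrations in 10-fold steps spanning a 10,000-fold range specific to that compound. Breast cancer cell lines were added as 20 µl suspension and left for 72 h before CellTox Green fluorescence (485/520 nm) and then CellTiter-Glo luminescence, read after 10 min at room temperature. Each reported value is the normalised signal at one concentration, with 0.1 % DMSO set at 100 and a positive kill control at 0 on each plate.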

In order of falling normalised response:
1. O=C1CCC(N2C(=O)c3ccccc3C2=O)C(=O)N1 (centres undefined) [Thalidomide] (1 nM)  101%
2. O=P1(NCCCl)OCCCN1CCCl (centres undefined) [Ifosfamide] (1 nM)  98.1%
3. CO[C@H]1/C=C\C=C(/C)C(=O)NC2=CC(=O)C(NCCN(C)C)=C(C[C@@H](C)C[C@H](OC)[C@H](O)[C@@H](C)/C=C(\C)[C@@H]1OC(N)=O)C2=O [Alvespimycin] (0.1 nM)  94.8%
4. Cc1ccc(-n2nc(C(C)(C)C)cc2NC(=O)Nc2ccc(OCCN3CCOCC3)c3ccccc23)cc1 [Doramapimod] (1 nM)  93%

system: SK-BR-3; experiment: as above; settings: incubation time: 72 h
In short: as §1

In order of rising normalised response:
1. Cc1ccc(-n2nc(C(C)(C)C)cc2NC(=O)Nc2ccc(OCCN3CCOCC3)c3ccccc23)cc1 [Doramapimod] (1 nM)  79.2%
2. Cc1ccc(C(=O)N(CCCN)[C@@H](c2oc3cc(Cl)ccc3c(=O)c2Cc2ccccc2)C(C)C)cc1 (0.1 nM)  89%
3. O=P1(NCCCl)OCCCN1CCCl (centres undefined) [Ifosfamide] (1 nM)  93.3%
4. O=C1CCC(N2C(=O)c3ccccc3C2=O)C(=O)N1 (centres undefined) [Thalidomide] (1 nM)  96.8%
5. COc1cc([C@@H]2c3cc4c(cc3[C@@H](O[C@@H]3O[C@@H]5CO[C@@H](C)O[C@H]5[C@H](O)[C@H]3O)[C@H]3COC(=O)[C@H]23)OCO4)cc(OC)c1O [Etoposide] (1 nM)  109%
6. Clc1ccc(Nc2nnc(Cc3ccncc3)c3ccccc23)cc1 [Vatalanib] (1 nM)  111%
7. CC1(C)NC(=O)N(c2ccc([N+](=O)[O-])c(C(F)(F)F)c2)C1=O [Nilutamide] (1 nM)  111%
8. CO[C@H]1/C=C\C=C(/C)C(=O)NC2=CC(=O)C(NCCN(C)C)=C(C[C@@H](C)C[C@H](OC)[C@H](O)[C@@H](C)/C=C(\C)[C@@H]1OC(N)=O)C2=O [Alvespimycin] (0.1 nM)  111%

system: MFM-223; experiment: as above; settings: incubation time: 72 h
In short: as §1

In order of rising normalised response:
1. O=P1(NCCCl)OCCCN1CCCl (centres undefined) [Ifosfamide] (1 nM)  87.2%
2. Cc1ccc(-n2nc(C(C)(C)C)cc2NC(=O)Nc2ccc(OCCN3CCOCC3)c3ccccc23)cc1 [Doramapimod] (1 nM)  92.4%
3. Cc1ccc(C(=O)N(CCCN)[C@@H](c2oc3cc(Cl)ccc3c(=O)c2Cc2ccccc2)C(C)C)cc1 (0.1 nM)  93.2%
4. O=C1CCC(N2C(=O)c3ccccc3C2=O)C(=O)N1 (centres undefined) [Thalidomide] (1 nM)  98%
5. CC1(C)NC(=O)N(c2ccc([N+](=O)[O-])c(C(F)(F)F)c2)C1=O [Nilutamide] (1 nM)  103%
6. COc1cc([C@@H]2c3cc4c(cc3[C@@H](O[C@@H]3O[C@@H]5CO[C@@H](C)O[C@H]5[C@H](O)[C@H]3O)[C@H]3COC(=O)[C@H]23)OCO4)cc(OC)c1O [Etoposide] (1 nM)  107%
7. CO[C@H]1/C=C\C=C(/C)C(=O)NC2=CC(=O)C(NCCN(C)C)=C(C[C@@H](C)C[C@H](OC)[C@H](O)[C@@H](C)/C=C(\C)[C@@H]1OC(N)=O)C2=O [Alvespimycin] (0.1 nM)  107%
8. Clc1ccc(Nc2nnc(Cc3ccncc3)c3ccccc23)cc1 [Vatalanib] (1 nM)  108%

system: HCC1599; experiment: as above; settings: incubation time: 72 h
In short: as §1

In order of rising normalised response:
1. Cc1ccc(-n2nc(C(C)(C)C)cc2NC(=O)Nc2ccc(OCCN3CCOCC3)c3ccccc23)cc1 [Doramapimod] (1 nM)  81.5%
2. O=P1(NCCCl)OCCCN1CCCl (centres undefined) [Ifosfamide] (1 nM)  94.2%
3. Cc1ccc(C(=O)N(CCCN)[C@@H](c2oc3cc(Cl)ccc3c(=O)c2Cc2ccccc2)C(C)C)cc1 (0.1 nM)  101%
4. Clc1ccc(Nc2nnc(Cc3ccncc3)c3ccccc23)cc1 [Vatalanib] (1 nM)  105%
5. COc1cc([C@@H]2c3cc4c(cc3[C@@H](O[C@@H]3O[C@@H]5CO[C@@H](C)O[C@H]5[C@H](O)[C@H]3O)[C@H]3COC(=O)[C@H]23)OCO4)cc(OC)c1O [Etoposide] (1 nM)  107%
6. CC1(C)NC(=O)N(c2ccc([N+](=O)[O-])c(C(F)(F)F)c2)C1=O [Nilutamide] (1 nM)  109%
7. O=C1CCC(N2C(=O)c3ccccc3C2=O)C(=O)N1 (centres undefined) [Thalidomide] (1 nM)  111%
8. CO[C@H]1/C=C\C=C(/C)C(=O)NC2=CC(=O)C(NCCN(C)C)=C(C[C@@H](C)C[C@H](OC)[C@H](O)[C@@H](C)/C=C(\C)[C@@H]1OC(N)=O)C2=O [Alvespimycin] (0.1 nM)  112%

system: MDA-MB-468; experiment: as above; settings: incubation time: 72 h
In short: as §1

In order of rising normalised response:
1. Cc1ccc(C(=O)N(CCCN)[C@@H](c2oc3cc(Cl)ccc3c(=O)c2Cc2ccccc2)C(C)C)cc1 (0.1 nM)  89.2%
2. Cc1ccc(-n2nc(C(C)(C)C)cc2NC(=O)Nc2ccc(OCCN3CCOCC3)c3ccccc23)cc1 [Doramapimod] (1 nM)  95%
3. O=P1(NCCCl)OCCCN1CCCl (centres undefined) [Ifosfamide] (1 nM)  95.3%
4. O=C1CCC(N2C(=O)c3ccccc3C2=O)C(=O)N1 (centres undefined) [Thalidomide] (1 nM)  98.5%
5. COc1cc([C@@H]2c3cc4c(cc3[C@@H](O[C@@H]3O[C@@H]5CO[C@@H](C)O[C@H]5[C@H](O)[C@H]3O)[C@H]3COC(=O)[C@H]23)OCO4)cc(OC)c1O [Etoposide] (1 nM)  101%
6. CC1(C)NC(=O)N(c2ccc([N+](=O)[O-])c(C(F)(F)F)c2)C1=O [Nilutamide] (1 nM)  106%
7. Clc1ccc(Nc2nnc(Cc3ccncc3)c3ccccc23)cc1 [Vatalanib] (1 nM)  114%
8. CO[C@H]1/C=C\C=C(/C)C(=O)NC2=CC(=O)C(NCCN(C)C)=C(C[C@@H](C)C[C@H](OC)[C@H](O)[C@@H](C)/C=C(\C)[C@@H]1OC(N)=O)C2=O [Alvespimycin] (0.1 nM)  116%

system: HCC1143; experiment: as above; settings: incubation time: 72 h
In short: as §1

In order of falling normalised response:
1. COc1cc([C@@H]2c3cc4c(cc3[C@@H](O[C@@H]3O[C@@H]5CO[C@@H](C)O[C@H]5[C@H](O)[C@H]3O)[C@H]3COC(=O)[C@H]23)OCO4)cc(OC)c1O [Etoposide] (1 nM)  110%
2. CC1(C)NC(=O)N(c2ccc([N+](=O)[O-])c(C(F)(F)F)c2)C1=O [Nilutamide] (1 nM)  101%
3. Cc1ccc(-n2nc(C(C)(C)C)cc2NC(=O)Nc2ccc(OCCN3CCOCC3)c3ccccc23)cc1 [Doramapimod] (1 nM)  98.3%
4. Clc1ccc(Nc2nnc(Cc3ccncc3)c3ccccc23)cc1 [Vatalanib] (1 nM)  97.1%
5. Cc1ccc(C(=O)N(CCCN)[C@@H](c2oc3cc(Cl)ccc3c(=O)c2Cc2ccccc2)C(C)C)cc1 (0.1 nM)  96.8%
6. O=C1CCC(N2C(=O)c3ccccc3C2=O)C(=O)N1 (centres undefined) [Thalidomide] (1 nM)  95.5%
7. CO[C@H]1/C=C\C=C(/C)C(=O)NC2=CC(=O)C(NCCN(C)C)=C(C[C@@H](C)C[C@H](OC)[C@H](O)[C@@H](C)/C=C(\C)[C@@H]1OC(N)=O)C2=O [Alvespimycin] (0.1 nM)  95.1%
8. O=P1(NCCCl)OCCCN1CCCl (centres undefined) [Ifosfamide] (1 nM)  89.7%

system: CAL-51; experiment: as above; settings: incubation time: 72 h
In short: as §1

In order of falling normalised response:
1. COc1cc([C@@H]2c3cc4c(cc3[C@@H](O[C@@H]3O[C@@H]5CO[C@@H](C)O[C@H]5[C@H](O)[C@H]3O)[C@H]3COC(=O)[C@H]23)OCO4)cc(OC)c1O [Etoposide] (1 nM)  134%
2. Clc1ccc(Nc2nnc(Cc3ccncc3)c3ccccc23)cc1 [Vatalanib] (1 nM)  99.8%
3. Cc1ccc(C(=O)N(CCCN)[C@@H](c2oc3cc(Cl)ccc3c(=O)c2Cc2ccccc2)C(C)C)cc1 (0.1 nM)  98.9%
4. O=C1CCC(N2C(=O)c3ccccc3C2=O)C(=O)N1 (centres undefined) [Thalidomide] (1 nM)  93.9%
5. CC1(C)NC(=O)N(c2ccc([N+](=O)[O-])c(C(F)(F)F)c2)C1=O [Nilutamide] (1 nM)  93.2%
6. Cc1ccc(-n2nc(C(C)(C)C)cc2NC(=O)Nc2ccc(OCCN3CCOCC3)c3ccccc23)cc1 [Doramapimod] (1 nM)  83.7%
7. O=P1(NCCCl)OCCCN1CCCl (centres undefined) [Ifosfamide] (1 nM)  78.5%
8. CO[C@H]1/C=C\C=C(/C)C(=O)NC2=CC(=O)C(NCCN(C)C)=C(C[C@@H](C)C[C@H](OC)[C@H](O)[C@@H](C)/C=C(\C)[C@@H]1OC(N)=O)C2=O [Alvespimycin] (0.1 nM)  69.6%

system: BT-549; experiment: as above; settings: incubation time: 72 h
In short: as §1

In order of falling normalised response:
1. COc1cc([C@@H]2c3cc4c(cc3[C@@H](O[C@@H]3O[C@@H]5CO[C@@H](C)O[C@H]5[C@H](O)[C@H]3O)[C@H]3COC(=O)[C@H]23)OCO4)cc(OC)c1O [Etoposide] (1 nM)  114%
2. Cc1ccc(-n2nc(C(C)(C)C)cc2NC(=O)Nc2ccc(OCCN3CCOCC3)c3ccccc23)cc1 [Doramapimod] (1 nM)  107%
3. CO[C@H]1/C=C\C=C(/C)C(=O)NC2=CC(=O)C(NCCN(C)C)=C(C[C@@H](C)C[C@H](OC)[C@H](O)[C@@H](C)/C=C(\C)[C@@H]1OC(N)=O)C2=O [Alvespimycin] (0.1 nM)  105%
4. O=C1CCC(N2C(=O)c3ccccc3C2=O)C(=O)N1 (centres undefined) [Thalidomide] (1 nM)  104%
5. CC1(C)NC(=O)N(c2ccc([N+](=O)[O-])c(C(F)(F)F)c2)C1=O [Nilutamide] (1 nM)  103%
6. O=P1(NCCCl)OCCCN1CCCl (centres undefined) [Ifosfamide] (1 nM)  102%
7. Cc1ccc(C(=O)N(CCCN)[C@@H](c2oc3cc(Cl)ccc3c(=O)c2Cc2ccccc2)C(C)C)cc1 (0.1 nM)  99.1%
8. Clc1ccc(Nc2nnc(Cc3ccncc3)c3ccccc23)cc1 [Vatalanib] (1 nM)  93.2%

system: DU-4475; experiment: as above; settings: incubation time: 72 h
In short: as §1

In order of falling normalised response:
1. CO[C@H]1/C=C\C=C(/C)C(=O)NC2=CC(=O)C(NCCN(C)C)=C(C[C@@H](C)C[C@H](OC)[C@H](O)[C@@H](C)/C=C(\C)[C@@H]1OC(N)=O)C2=O [Alvespimycin] (0.1 nM)  109%
2. COc1cc([C@@H]2c3cc4c(cc3[C@@H](O[C@@H]3O[C@@H]5CO[C@@H](C)O[C@H]5[C@H](O)[C@H]3O)[C@H]3COC(=O)[C@H]23)OCO4)cc(OC)c1O [Etoposide] (1 nM)  106%
3. CC1(C)NC(=O)N(c2ccc([N+](=O)[O-])c(C(F)(F)F)c2)C1=O [Nilutamide] (1 nM)  105%
4. Clc1ccc(Nc2nnc(Cc3ccncc3)c3ccccc23)cc1 [Vatalanib] (1 nM)  104%
5. Cc1ccc(-n2nc(C(C)(C)C)cc2NC(=O)Nc2ccc(OCCN3CCOCC3)c3ccccc23)cc1 [Doramapimod] (1 nM)  97.6%
6. Cc1ccc(C(=O)N(CCCN)[C@@H](c2oc3cc(Cl)ccc3c(=O)c2Cc2ccccc2)C(C)C)cc1 (0.1 nM)  96%
7. O=C1CCC(N2C(=O)c3ccccc3C2=O)C(=O)N1 (centres undefined) [Thalidomide] (1 nM)  95.1%
8. O=P1(NCCCl)OCCCN1CCCl (centres undefined) [Ifosfamide] (1 nM)  93.7%

system: CAL-120; experiment: as above; settings: incubation time: 72 h
In short: as §1

In order of rising normalised response:
1. Clc1ccc(Nc2nnc(Cc3ccncc3)c3ccccc23)cc1 [Vatalanib] (1 nM)  97.3%
2. CC1(C)NC(=O)N(c2ccc([N+](=O)[O-])c(C(F)(F)F)c2)C1=O [Nilutamide] (1 nM)  99.1%
3. O=C1CCC(N2C(=O)c3ccccc3C2=O)C(=O)N1 (centres undefined) [Thalidomide] (1 nM)  99.3%
4. Cc1ccc(C(=O)N(CCCN)[C@@H](c2oc3cc(Cl)ccc3c(=O)c2Cc2ccccc2)C(C)C)cc1 (0.1 nM)  100%
5. COc1cc([C@@H]2c3cc4c(cc3[C@@H](O[C@@H]3O[C@@H]5CO[C@@H](C)O[C@H]5[C@H](O)[C@H]3O)[C@H]3COC(=O)[C@H]23)OCO4)cc(OC)c1O [Etoposide] (1 nM)  101%
6. CO[C@H]1/C=C\C=C(/C)C(=O)NC2=CC(=O)C(NCCN(C)C)=C(C[C@@H](C)C[C@H](OC)[C@H](O)[C@@H](C)/C=C(\C)[C@@H]1OC(N)=O)C2=O [Alvespimycin] (0.1 nM)  105%
